Reference: patent US20250011289A1, “1H-BENZO[B]AZEPIN-2(3H)-ONE COMPOUNDS, COMPOSITIONS AND METHODS OF TREATING CANCER” (Chengdu Anticancer Bioscience, Ltd., priority 2021, published 2025)
Read-outs that look alike come from different tables or passages of the source.

How the values were obtained:
[1] = test system: RPE-Neo or RPE-MYC or RPE-MYC expressing an EGFP-Histone 2B fusion protein; assay: Phenotypic screening assay (arrest in mitosis or change in DNA content, IN-Cell Analyzer); type: cell-based; conditions: compounds at 20 nM to 20 μM, analysed 24, 48 or 72 hours after initiation of treatment
Description: (§1) Screening was conducted as described before (Li et al. 2019). Briefly, RPE-Neo or RPE-MYC or RPE-MYC expressing an EGFP-Histone 2B fusion protein were passaged as batches of 96-well plates, 18-24 hours before exposure to the chemical compounds of the present disclosure at concentrations from 20 nM to 20 μM. At 24, 48 or 72 hours after initiation of treatment, cells were analyzed for either an arrest in mitosis or a change in DNA content by GE 1N-Cell Analyzer 2000. MTT assays of cellular proliferation were performed as previously described (Li et al. 2019).
(§2) As set forth in table 2 below, an values of greater than or equal to 1 nM and less than or equal to 1.0 μM is marked “A”; a value greater than 1.00 μM and less than or equal to 10.0 μM is marked “B”; a value greater than 10.0 μM and less than or equal to 30.0 μM is marked “C”; and a value greater than 30.0 μM and less than 1000 μM is marked “D.”

RPE-Neo or RPE-MYC cells = assay: MTT assay of cellular proliferation; type: cell-based; conditions: compounds at 20 nM to 20 μM; read-out: Min. Effective conc. for Proliferative arrest (>50%)
Description: Human cancer cell lines were obtained from ATCC and cultured in DMEM (Gibco, Cleveland. TN, USA) supplemented with 5% fetal bovine serum (Gibco), penicillin (100 U/mL)-streptomycin (100 μg/mL) (Gibco, Cat. No. 15140-122), 2 mM L-glutamine (Gibco, 200 mM solution, Cat. No. 25030081), and 1 mM sodium pyruvate (Gibco, 100 mM solution, Cat. No. 11360070) at 37° C. in a humidified incubator that was maintained at 5% CO2.
as §1, §2

[2] = read-out: Min. Effective conc. for Along with Cell Death
[3] = read-out: Min. Effective conc. for Mitotic Arrest (>5%)
[4] = read-out: Min. Effective conc. for Polyploidy (≥5%)

Measured: minimal effective concentration

Cc1ccc(CN2C(=O)CC(C=O)=C(Cl)c3ccccc32)cc1F [Compound 7-1, 5-chloro-1-(3-fluoro-4-methylbenzyl)-2-oxo-2,3-dihydro-1H-benzo[b]azepine-4-carbaldehyde]
0.001 to 1 µM: [1]; [2] | [1]; [3] | [1]; [4] | RPE-Neo or RPE-MYC cells

Cc1ccc(CN2C(=O)CC(c3cnco3)=C(Cl)c3ccccc32)cc1F [Compound 8-1, 5-chloro-1-(3-fluoro-4-methylbenzyl)-4-(oxazol-5-yl)-1,3-dihydro-2H-benzo[b]azepin-2-one]
0.001 to 1 µM: [1]; [2] | [1]; [3] | [1]; [4] | RPE-Neo or RPE-MYC cells

Cc1ccc(CN2C(=O)CC(c3cnco3)=C(Br)c3ccccc32)cc1F [Compound 8-2, 5-bromo-1-(3-fluoro-4-methylbenzyl)-4-(oxazol-5-yl)-1,3-dihydro-2H-benzo[b]azepin-2-one]
0.001 to 1 µM: [1]; [2] | [1]; [3] | [1]; [4] | RPE-Neo or RPE-MYC cells

Cc1ccc(CN2C(=O)CC(c3cnco3)=C(Br)c3ccc(Br)cc32)cc1F [Compound 8-3, 5,8-dibromo-1-(3-fluoro-4-methylbenzyl)-4-(oxazol-5-yl)-1,3-dihydro-2H-benzo[b]azepin-2-one]
0.001 to 1 µM: [1]; [2] | [1]; [3] | [1]; [4] | RPE-Neo or RPE-MYC cells

Cc1ccc(CN2C(=O)CC(c3cnco3)=C(Cl)c3ccc(C#N)cc32)cc1F [Compound 8-4, 5-chloro-1-(3-fluoro-4-methylbenzyl)-4-(oxazol-5-yl)-2-oxo-2,3-dihydro-1H-benzo[b]azepine-8-carbonitrile]
0.001 to 1 µM: [1]; [2] | [1]; [3] | [1]; [4] | RPE-Neo or RPE-MYC cells

COc1ccc2c(c1)N(Cc1ccc(C)c(F)c1)C(=O)CC(c1cnco1)=C2Cl [Compound 8-5, 5-chloro-1-(3-fluoro-4-methylbenzyl)-8-methoxy-4-(oxazol-5-yl)-1,3-dihydro-2H-benzo[b]azepin-2-one]
0.001 to 1 µM: [1]; [2] | [1]; [3] | [1]; [4] | RPE-Neo or RPE-MYC cells

COc1ccc2c(c1)N(Cc1ccc(C)c(F)c1)C(=O)CC(c1cnco1)=C2Br [Compound 8-6, 5-bromo-1-(3-fluoro-4-methylbenzyl)-8-methoxy-4-(oxazol-5-yl)-1,3-dihydro-2H-benzo[b]azepin-2-one]
0.001 to 1 µM: [1]; [2] | [1]; [3] | [1]; [4] | RPE-Neo or RPE-MYC cells

Cc1ccc(CN2C(=O)CC(c3cnco3)=C(Cl)c3ccc(O)cc32)cc1F [Compound 8-7, 5-chloro-1-(3-fluoro-4-methylbenzyl)-8-hydroxy-4-(oxazol-5-yl)-1,3-dihydro-2H-benzo[b]azepin-2-one]
0.001 to 1 µM: [1]; [2] | [1]; [3] | [1]; [4] | RPE-Neo or RPE-MYC cells

COCCOc1ccc2c(c1)N(Cc1ccc(C)c(F)c1)C(=O)CC(c1cnco1)=C2Cl [Compound 8-9]
0.001 to 1 µM: [1]; [2] | [1]; [3] | [1]; [4] | RPE-Neo or RPE-MYC cells

Cc1ccc(CN2C(=O)CC(c3cnco3)=C(Br)c3ccc(O)cc32)cc1F [Compound 8-10, 5-bromo-1-(3-fluoro-4-methylbenzyl)-8-hydroxy-4-(oxazol-5-yl)-1,3-dihydro-2H-benzo[b]azepin-2-one]
0.001 to 1 µM: [1]; [2] | [1]; [3] | [1]; [4] | RPE-Neo or RPE-MYC cells

Cc1ccc2c(c1)N(Cc1ccc(C)c(F)c1)C(=O)CC(c1cnco1)=C2Br [Compound 8-13, 5-bromo-1-(3-fluoro-4-methylbenzyl)-8-methyl-4-(oxazol-5-yl)-1,3-dihydro-2H-benzo[b]azepin-2-one]
0.001 to 1 µM: [1]; [2] | [1]; [3] | [1]; [4] | RPE-Neo or RPE-MYC cells

COC1=C(c2nc(C)no2)CC(=O)N(Cc2ccc(C)c(F)c2)c2cc(Br)ccc21 [Compound 10-1, 8-bromo-1-(3-fluoro-4-methylbenzyl)-5-methoxy-4-(3-methyl-1,2,4-oxadiazol-5-yl)-1,3-dihydro-2H-benzo[b]azepin-2-one]
0.001 to 1 µM: [1]; [2] | [1]; [3] | [1]; [4] | RPE-Neo or RPE-MYC cells

Cc1ccc(CN2C(=O)CC(c3ccon3)=C(Cl)c3ccccc32)cc1F [Compound 13-1, 5-chloro-1-(3-fluoro-4-methylbenzyl)-4-(isoxazol-3-yl)-1,3-dihydro-2H-benzo[b]azepin-2-one]
0.001 to 1 µM: [1]; [2] | [1]; [3] | [1]; [4] | RPE-Neo or RPE-MYC cells

Cc1ccc(CN2C(=O)CC(c3ccon3)=C(Br)c3ccccc32)cc1F [Compound 13-2]
0.001 to 1 µM: [1]; [2] | [1]; [3] | [1]; [4] | RPE-Neo or RPE-MYC cells

Cc1ccc(CN2C(=O)CC(c3nnc(N)s3)=C(Cl)c3ccccc32)cc1F [Compound 15-1, 4-(5-amino-1,3,4-thiadiazol-2-yl)-5-chloro-1-(3-fluoro-4-methylbenzyl)-1,3-dihydro-2H-benzo[b]azepin-2-one]
0.001 to 1 µM: [1]; [2] | [1]; [3] | [1]; [4] | RPE-Neo or RPE-MYC cells

Cc1ccc(CN2C(=O)CC(c3nnc(N)s3)=C(Br)c3ccccc32)cc1F [Compound 15-2, 4-(5-amino-1,3,4-thiadiazol-2-yl)-5-bromo-1-(3-fluoro-4-methylbenzyl)-1,3-dihydro-2H-benzo[b]azepin-2-one]
0.001 to 1 µM: [1]; [2] | [1]; [3] | [1]; [4] | RPE-Neo or RPE-MYC cells

Cc1noc(C2=C(Br)c3ccccc3N(Cc3ccc(C)c(F)c3)C(=O)C2)n1 [Compound 18-1, 5-bromo-1-(3-fluoro-4-methylbenzyl)-4-(3-methyl-1,2,4-oxadiazol-5-yl)-1,3-dihydro-2H-benzo[b]azepin-2-one]
0.001 to 1 µM: [1]; [2] | [1]; [3] | [1]; [4] | RPE-Neo or RPE-MYC cells

Cc1nnc(C2=C(Cl)c3ccccc3N(Cc3ccc(C)c(F)c3)C(=O)C2)o1 [Compound 20-1, 5-chloro-1-(3-fluoro-4-methylbenzyl)-4-(5-methyl-1,3,4-oxadiazol-2-yl)-1,3-dihydro-2H-benzo[b]azepin-2-one]
0.001 to 1 µM: [1]; [2] | [1]; [3] | [1]; [4] | RPE-Neo or RPE-MYC cells

Cc1nnc(C2=C(Br)c3ccccc3N(Cc3ccc(C)c(F)c3)C(=O)C2)o1 [Compound 20-2, 5-bromo-1-(3-fluoro-4-methylbenzyl)-4-(5-methyl-1,3,4-oxadiazol-2-yl)-1,3-dihydro-2H-benzo[b]azepin-2-one]
0.001 to 1 µM: [1]; [2] | [1]; [3] | [1]; [4] | RPE-Neo or RPE-MYC cells

Cc1ccc(CN2C(=O)CC(c3nnc(C4CC4)o3)=C(Br)c3ccccc32)cc1F [Compound 20-3, 5-bromo-4-(5-cyclopropyl-1,3,4-oxadiazol-2-yl)-1-(3-fluoro-4-methylbenzyl)-1,3-dihydro-2H-benzo[b]azepin-2-one]
0.001 to 1 µM: [1]; [2] | [1]; [3] | [1]; [4] | RPE-Neo or RPE-MYC cells

COc1ccc2c(c1)N(Cc1ccc(C)c(F)c1)C(=O)CC(c1nnc(C3CC3)o1)=C2Br [Compound 20-4, 5-bromo-4-(5-cyclopropyl-1,3,4-oxadiazol-2-yl)-1-(3-fluoro-4-methylbenzyl)-8-methoxy-1,3-dihydro-2H-benzo[b]azepin-2-one]
0.001 to 1 µM: [1]; [2] | [1]; [3] | [1]; [4] | RPE-Neo or RPE-MYC cells

Cc1ccc(CN2C(=O)CC(c3nnc(C4CC4)o3)=C(Cl)c3ccccc32)cc1F [Compound 20-5, 5-chloro-4-(5-cyclopropyl-1,3,4-oxadiazol-2-yl)-1-(3-fluoro-4-methylbenzyl)-1,3-dihydro-2H-benzo[b]azepin-2-one]
0.001 to 1 µM: [1]; [2] | [1]; [3] | [1]; [4] | RPE-Neo or RPE-MYC cells
